One experiment deals with Staph. epidermidis. The experiment in a line: MIC of peptides against uropathogenic microorganisms. The experiment is classed as cell-based, Staphylococcus epidermidis 1938.
A further experiment has as its system Kl. pneumoniae. The experiment in a line: MIC of peptides against uropathogenic microorganisms. The experiment is classed as cell-based. Particulars: K. pneumoniae; bactericidal if less than 0.1% of original bacteria remained viable.
A further experiment has as its system E. coli. The description is as above. The experiment is classed as cell-based, Escherichia coli HU734. Particulars: bactericidal if less than 0.1% of original bacteria remained viable.
In the next experiment the test system is Ps. aeruginosa. Described as above. The experiment is classed as cell-based, Pseudomonas aeruginosa AK1. As to conditions: P. aeruginosa; bactericidal if less than 0.1% of original bacteria remained viable.

Read-outs that look alike come from different tables or passages of the source. No end group written: not given here.

Method for L. fermentum B-54: (§1) Mean values obtained from three independent experiments are shown.
(§2) Action of the peptide was considered bactericidal if less than 0.1% of original number of bacteria remained viable following the treatment. Resistant organisms were also plated from the 100 μmol 1^−1 well to confirm presence of any inhibition.
Method for L. fermentum RC-14: as §1, §2
Method for L. plantarum RC-20: as §1, §2
Method for L. rhamnosus 81: as §1, §2
Method for L. rhamnosus GR-1: as §1, §2

As to “SWLSKTAKKLENSAKKRISEGIAIAIQGGPR [Cecropin P1]”, the MIC in the experiment with Staph. epidermidis is above 100 μmol 1^−1 M; against L. rhamnosus GR-1, above 100 µM; against L. fermentum B-54, above 100 µM; in the experiment with L. plantarum RC-20 it was above 100 µM; against L. rhamnosus 81 it was above 100 µM; against L. fermentum RC-14, above 100 µM. The mode of action entry in the experiment on Kl. pneumoniae, in the experiment on E. coli and in the experiment on Ps. aeruginosa was “bacteriocidally” each time.

Regarding “FALL-39 (FALLGDFFRKSKEKIGKEFKRIVQRIKDFLRNLVPRTES; Antibacterial peptide FALL-39; UniProt P49913 132-170, looked up)”, the MIC with Staph. epidermidis is above 100 μmol 1^−1 M; against L. fermentum B-54 (L. fermentum B-54 as indicator organism) it was 100 µM. Also, the “susceptibility of strain to peptide” value is on record as “resistant” in the experiment with L. rhamnosus GR-1 (L. rhamnosus GR-1, highest concentration 100 μmol 1^−1); “resistant” with L. plantarum RC-20 (L. plantarum RC-20, highest concentration 100 μmol 1^−1); “resistant” with L. rhamnosus 81 (L. rhamnosus 81, highest concentration 100 μmol 1^−1); “resistant” in the experiment with L. fermentum RC-14 (L. fermentum RC-14, highest concentration 100 μmol 1^−1). Further, the mode of action result in the experiment with L. fermentum B-54 (L. fermentum B-54) is “bacteriostatically”; in the experiment on Kl. pneumoniae, “bacteriostatic”; in the experiment on E. coli, “bactericidal”; with Ps. aeruginosa, “bacteriostatic”.

The values are drawn from patent publication US20030118571A1, “Oral administration of lactobacillus for the maintenance of health in women during pregnancy and at other life stages, to reduce the risk of urogenital diseases” (priority 1999, published 2003).
